Assay results taken from patent publication US7351399B2, “Prodrugs for phosphorus-containing compounds” (Metabasis Therapeutics, Inc., priority 1998, dated 2008).
Entries after “also recorded” stand apart in the source; their conditions may differ. Read-outs that look alike come from different tables or passages of the source. One block for each compound: values may come before it.

What was measured:
[1] = Activation by rat liver microsomes (Example D); details: 100 μM; 0-2.5 mg/ml microsomal protein; 37° C.; with/without NADP+
Procedure: Methods: The microsomal fraction was prepared from fresh, saline-perfused rat liver. Liver tissue was homogenized in three volumes (w/v) of 0.2 M KH2PO4 buffer pH 7.5, containing 2 mM MgCl2 and 1 mM EGTA. The homogenate was centrifuged at 10,000 g for 1 hour and the supernatant recovered. The supernatant fraction was then recentrifuged at 100,000 g to pellet the microsomal fraction. The pellet was resuspended in homogenization buffer and recentrifuged. This process was repeated twice to ensure complete removal of cytosolic enzyme activities. After the last centrifugation, the microsomal pellet was resuspended in homogenization buffer at a final protein concentration of about 14 mg/ml.
For 7.1, reaction mixtures (0.5 ml) consisted of 0.2 M KH2PO4 pH 7.5, 13 mM glucose-6-phosphate, 2.2 mM NADP^+, 1 unit of glucose-6-phosphate dehydrogenase, 0-2.5 mg/ml microsomal protein and 100 μM 7.1. Reactions were carried out at 37° C. Aliquots were removed from the reaction mixtures at appropriate time points, and extracted with 60% methanol.
Reactions are monitored spectrophotometrically at 340 nm. A decrease in absorbance is indicative of cofactor depletion and thus of the enzymatic oxidation of prodrug to parent compound.

[2] = Oral bioavailability by urinary excretion method (Example M); type: in vivo; details: oral gavage 20 or 40 mg/kg parent equivalents; 24 h urine vs i.v. parent ~10 mg/kg; rat
Procedure: (§1) The oral bioavailability of prodrugs of a variety of phosphonic acid FBPase inhibitors was estimated by a urinary excretion method in rat.
Prodrugs of FBPase inhibitors were dissolved in 10% ethanol/90% polyethylene glycol (mw 400) and administered by oral gavage at doses of 20 or 40 mg/kg parent compound equivalents to 6-hour fasted, Sprague Dawley rats (220-240 g). The rats were subsequently placed in metabolic cages and urine was collected for 24 hours. The quantity of parent compound excreted into urine was determined by HPLC analysis. An ODS column eluted with a gradient from potassium phosphate buffer, pH 5.5 to acetonitrile was employed for these measurements. Detection was at 310-325 nm. […] Parent compounds were typically dissolved in dimethyl sulfoxide, and administered via the tail vein in animals that were briefly anesthetized with halothane.
Results for the FBPase inhibitor prodrugs were as follows

[3] = Liver ara-ATP and ara-hypoxanthine generation after intravenous administration (Example O); type: in vivo, rat; details: for liver ara-ATP area under the curve relative to 10 mg/kg equivalent dose of ara-AMP: over 8 hours; for ara-hypoxanthine (araH) in plasma / blood: 30.1 10 and 3 mg/kg, ara-AMP 10 mg/kg; for dose excreted in the form of ara-hypoxanthine in urine: ara-AMP 10 mg/kg equivalent dose
Procedure: The temporal profile of ara-hypoxanthine and ara-ATP generation following intravenous administration of 30.1 and free ara-AMP was compared in the rat. Method: 30.1 and ara-AMP (Sigma) were administered to normal, fasted rats intravenously (in saline) via tail vein catheters. At appropriate time points following drug a administration, animals were lightly anesthetized with halothane. The peritoneal cavity was then opened and a blood sample was obtained from the abdominal vena cava and the liver freeze-clamped and excised. The blood samples were heparinized and plasma was prepared. Plasma samples (100 μL) were mixed with 4 N perchloric acid (40 μL), vortexed, and then clarified by centrifugation. […] The eluent was monitored by UV absorbance at 254 nm. Livers were immediately homogenized in 3 volumes of 10% perchloric acid (w/w), and the extracts clarified by centrifugation at 2500×g (5 minutes). The resulting supernatants were removed and neutralized with 0.3 volumes of 3M KOH/3M KHCO3. […] Renal excretion of araH following i.v. administration of 30.1 or ara-AMP was determined as described in Example Q.

normal C57 mice = details: for araATP, nmoles/g liver: day 22, 3 hours after final dosing
Procedure: Death and other obvious signs of toxicity such as weight loss, tremors, ruffling fur, hunching, prostration, diarrhea, lethargy, and hyperactivity were monitored. On day 22, 3 hours following the final dosing, mice were sacrificed and livers were removed and homogenized in 3 volumes (to liver weight) of 10% perchloric acid.

[4] = Stability in plasma (Example C)
Procedure: Methods: Compounds were incubated in plasma at 37° C., and aliqouts removed at appropriate time points over the course of 5-8 hours. The aliquots were extracted with 1.5 volumes of methanol and clarified by centrifugation. Supernatants were then evaporated to dryness and the residues reconstituted with 100 μL of isoionic saline and then analyzed by reverse phase HPLC.

[5] = Chemical stability in isotonic saline and phosphate buffer (Example A); type: physicochemical; details: room temperature
Procedure: Methods: Aliquots of a 10 μg/mL solution of 30.1 in isotonic saline and in 100 mM potassium phosphate buffers at pH 3, 7, and 9 were sampled after 1, 2, 5, and 7 days of incubation at room temperature and analyzed by HPLC. A Beckman Ultrasphere C8 column (4.6×150 mm) was employed and eluted with a gradient from 0.1% v/v trifluoroacetic acid to 80% methanol at a flow rate of 1.0 mL/min. Detection was at 254 nm. Using these conditions, the four isomers of 30.1 were readily separated and quantified. 1.3 was incubated at 100 μM in phosphate buffer at pH 7.4 and analyzed by HPLC as described in Example I following 1 hour of incubation at room temperature.
Thus, prodrugs of the invention are stable under a broad pH range.

[6] = Oral bioavailability from liver ara-ATP area under the curve (Example M); type: in vivo, rat; details: for oral bioavailability: hepatic ara-ATP AUC, fasted rats
Procedure: as §1
Methods: Fasted rats were dosed orally and intravenously with 30.1 at 3 and 10 mg/kg. Liver samples were obtained, processed, and analyzed for ara-ATP content as described in Example P.
[“Adenine Arabinoside: An Antiviral Agent” (1975) D. Pavan-Langston, Editor, Raven Press Publishers, New York].

[7] = Tissue distribution: activation in tissue homogenates (Example T); type: in vitro ADME, rat; details: 100 μM; liver cytosol without microsomes
Procedure: 30.1 is tested for activation in homogenates from various tissues to assess the specificity of liver activation.
Methods: Rats are anaesthetized under halothane and tissues including liver, kidney, brain, heart, stomach, spleen, muscle, lung, and testis are excised and frozen in liquid nitrogen. Tissues are then homogenized in 1 to 3 volumes of 50 mM Tris/HCl, 154 mM KCl, 1 mM EGTA pH 7.4. The homogenate is centrifuged at 10,000 rpm and 4° C. for 30 minutes and the supernatant recovered. Liver cytosol is prepared by centrifuging the liver crude extract for 1 hour at 40,000 rpm and 4° C. Reaction mixtures consist of 50 mM KH2PO4 pH 7.4, 13 mM glucose-6-phosphate, 2 mM NADP^+, 10 units of glucose-6-phosphate dehydrogenase, 100 μM 30.1 and tissue homogenate at a protein concentration of 8.5 mg/ml. Reactions are incubated at 37° C. Aliquots are taken after 0 and 1 hour of incubation, and extracted with 60% methanol. The methanolic extracts are centrifuged at 14,000 rpm, and filtered prior to analysis by HPLC. The samples are loaded onto a YMC C8 column equilibrated with 0.1% TFA and eluted with a methanol gradient to 80%. Ihe activation of 30.1 to ara-AMP is monitored at […]
Results. […] Results of this nature indicate liver specific activation of 30.1.

isolated rat hepatocytes = experiment: Generation of PMEApp in isolated rat hepatocytes (Example V); type: cell-based; details: Dose 250 μM; 4 h; triplicate
Procedure: Methods: Hepatocytes were prepared from fed rats and incubated as described in Example I. Test compounds were prepared in DMSO and-diluted to 250 μM in the cell suspensions. Reactions were performed in triplicate. After 4 hours of incubation, aliquots of the suspension were removed and processed as described in Example I. Quantitation of PMEApp was performed by anion exchange HPLC also as described in Example I.

[8] = Hepatic PMEA-diphosphate generation following oral administration (Example W); type: in vivo, rat; details: oral gavage 30 mg/kg PMEA equiv.; 4 h; fasted rats; n = 3
Procedure: Four hours post administration, liver samples were obtained and processed as described in Example […] was analyzed by anion exchange HPLC as described for […] in Example O.

rat embryos in culture = details: cited from earlier work
[9] = intravenous; human patients; cited from earlier work

Compound: CC(C)Cn1c(-c2ccc(P3(=O)OCC(CO)CO3)o2)nc2ccc(Cl)cc21 (centres unmarked) [Compound 7.1, 6-Chloro-1-isobutyl-2-{5-[2′-(hydroxymethyl)-propan-1′,3′-yl]phosphono-2-furanyl}benzimidazole]
conversion to parent compound [1]: converted to parent compound in the presence, but not in the absence of, NADP^+
% OBAV Prodrug [2]: 10.9%

Compound: Nc1ncnc2c1ncn2[C@@H]1O[C@H](COP2(=O)OCCC(c3ccncc3)O2)[C@@H](O)[C@@H]1O (stereo partly drawn) [Compound 30.1, Adenine-9-beta-D-arabinofuranoside-5′-[1-(4-pyridyl)-1,3-propyl]monophosphate]
liver ara-ATP area under the curve relative to 10 mg/kg equivalent dose of ara-AMP ([3]; 30.1 3 mg/kg i.v., rat): 2.1 times higher
liver ara-ATP area under the curve relative to 10 mg/kg equivalent dose of ara-AMP ([3]; 30.1 10 mg/kg i.v., rat): 5.2 times higher
liver levels of araATP relative to araAMP (FIG. 1A) ([3]; i.v., 30.1 10 and 3 mg/kg vs araAMP 10 mg/kg): Significantly higher
ara-hypoxanthine (araH) in plasma / blood ([3]; i.v., rat): not detected; also recorded: no ara-hypoxanthine; also recorded: failed to produce detectable amounts; also recorded: no araH (a toxic metabolite) was detected
dose excreted in the form of ara-hypoxanthine in urine ([3]; i.v., rat): Nor was ara-hypoxanthine detected in urine
liver (araATP)/urine (araH) ratio in comparison with araAMP ([3]; rat): substantial shift
safety of administration (normal C57 mice; 22 day period, doses up to 200 mg/kg/d): safely administered
araATP, nmoles/g liver (normal C57 mice; Dose 20 mg/kg/d): 6.6 ± 1.6 nmoles/g liver
araATP, nmoles/g liver (normal C57 mice; Dose 200 mg/kg/d): 23.1 ± 9 nmoles/g liver
metabolism / degradation in fresh rat plasma ([4]; 37° C., 5-8 hours, HPLC): not degraded; also recorded: no evidence of metabolism
deamination by adenosine deaminase found in rat plasma ([4]; rat plasma): not susceptible
decomposition in saline or buffer ([5]; 10 μg/mL, isotonic saline and 100 mM potassium phosphate buffers pH 3, 7, 9, 7 days, HPLC): No decomposition
period for which stable ([5]; isotonic saline / 100 mM potassium phosphate buffer pH 3, 7, 9): at least seven
oral bioavailability ([6]; 3 mg/kg oral vs intravenous): 13.7%
oral bioavailability ([6]; 10 mg/kg oral vs intravenous): 17.4%
production of the metabolite araH after oral administration ([6]; oral administration): without production of the metabolite araH
activation to ara-AMP in liver cytosol [7]: does not result in activation

PMEApp (isolated rat hepatocytes): 52.8 ± 1.5 nmol/g
Hepatic PMEApp (nmoles/g/tissue) [8]: 11.1 ± 1.8 nmoles/g/tissue
Compound: Nc1ncnc2c1ncn2CCOCP1(=O)OCCC(c2cccc(Cl)c2)O1 (centres unmarked) [Compound 31.1, 9-{2-[1-(3-Chlorophenyl)1,3-propylphosphonomethoxy]ethyl}adenine]

Compound: C=CC(=O)c1ccccc1 [Phenyl vinyl ketone]
teratogenic activity (rat embryos in culture): lacks teratogenic activity

Compound: Nc1ncnc2c1ncn2[C@@H]1O[C@H](COP(=O)(O)O)[C@@H](O)[C@@H]1O [araAMP, reference compound]
ara-hypoxanthine (araH) in plasma / blood ([3]; i.v., rat, listed as AraAMP): rapidly and nearly completely converted to araH
ara-hypoxanthine (araH) in plasma / blood ([3]; i.v., rat, listed as ara-AMP): μmolar levels
dose excreted in the form of ara-hypoxanthine in urine ([3]; i.v., rat): 19.2%
plasma half-life relative to 30.1 ([3]; rat, compound not detectable in plasma): considerably shorter
araATP, nmoles/g liver (normal C57 mice; Dose 20 mg/kg/d): 2.5 ± 0.2 nmoles/g liver
araATP, nmoles/g liver (normal C57 mice; Dose 200 mg/kg/d): 19.1 ± 4.0 nmoles/g liver
ara-AMP in plasma [9]: not detected in plasma
